Like-named read-outs stand apart in the source and are kept apart here.
Columns and labels:
taenia coli = assay: Antagonistic activity to calcium in the taenia coli of guinea pigs (CaCl2-induced contractions, in vitro); assay type: cell-based, Hartley albino guinea pigs; conditions: for IC50: Cavia porcellus, 10 min, read-out: Calcium antagonistic activity in vitro ED50; for Inhibition of contractions due to CaCl2 after washing of the tissue: taenia coli, repeated washing
Description: Antagonistic Activity to Calcium in the Taenia Coli of Guinea Pigs
Hartley albino guinea pigs of average weight 450 g were used. The calcium antagonistic activity was determined stimulating the taenia coli, previously depolarized, with a single submaximal concentration of CaCl2 (10^-3 M), at intervals of 20 minutes (according to the method Naunyn Schmied. Arch. Pharmacol. 318, 235 (1982)). The products were left in contact with the preparation for 10 minutes. The ED50 were calculated from the percentage of maximum inhibition.

[1] = test system: Spontaneous Hypertensive Rats (SHR); assay: Hypotensive activity in spontaneous hypertensive rats (SHR); assay type: in vivo, Male SHR (Okamoto) rats; conditions: for ED (25%): Rattus norvegicus, po, p.o. in 0.4% carboxymethyl cellulose, systolic arterial pressure, read-out: Hypotensive activity in SHR ED^SABP -25%; for Hypotensive activity compared with Nifedipine / Duration of hypotensive activity (still present after) / Hypotensive activity relative to Nifedipine: p.o.; for Hypotensive activity compared with Nifedipine: versus Nifedipine; for Hypotensive activity relative to Nifedipine: multiple of Nifedipine activity
Description: Hypotensive Activity in Spontaneous Hypertensive Rats (SHR)
Male SHR (Okamoto), of 70-100 days of age were used. The systolic arterial pressure (SABP) was determined by applying to the tail of the animal a pressure transducer with a sleeve connected to a BP-Recorder (W-W Electronic of Basel). The animals were previously warmed to 39° C. for a period of 15-20 minutes in a ventilated chamber.
The rats were previously trained to the registration for 1-2 days prior to the start of the experiment which consisted of a basic registration, the pharmacological treatment and then of subsequent registrations one hour and three hours after the treatment.
All the products were administered orally (p.o.), suspended in 0.4% carboxymethyl cellulose (Methocel); the volume of vehicle was 2 ml per kg.
The compounds of formula (I) were tested at three dose levels and the value of ED-25% was determined.

in vivo = conditions: mouse, iv, mice, i.v. in dimethylsulfoxide, after seven days, Litchfield and Wilcoxon
Description: Intravenous Toxicity in Mice
Male CD1 mice from Charles River (Italy), weighing 25 g were used. Compounds were administered intravenously (i.v.), dissolved in dimethylsulfoxide, and the volume of administration was 0.01 ml per 10 g of body weight. The LD50 after seven days, was calculated according to the method of Litchfield and Wilcoxon (Experimental Therapeutics 96, 99 (1949)).

[2] = guinea pig taenia coli, depolarized, CaCl2 10^-3 M, 10 min contact, from maximum inhibition

| Structure (SMILES) | IC50 (taenia coli; [2]) | ED (25%) [1] | LD50 at 168 h (in vivo) | IC50 (taenia coli) | Inhibition of contractions due to CaCl2 after washing of the tissue (taenia coli) | Hypotensive activity compared with Nifedipine [1] | Duration of hypotensive activity (still present after) [1] | Hypotensive activity relative to Nifedipine [1] |
| --- | --- | --- | --- | --- | --- | --- | --- | --- |
| COC(=O)C1=C(C)NC(C)=C(C(=O)OCCN2CCN(c3ccccc3)CC2)C1c1cccc([N+](=O)[O-])c1 (stereo not drawn) [0219A, 2-(4-Phenyl)piperazino-ethyl 2,6-dimethyl-4-(3-nitrophenyl)-5-methoxycarbonyl-1,4-dihydropyridine-3-carboxylate] | 2.4 nM | 8.7 mg/kg | 8.6 mg/kg |  |  |  |  |  |
| COC(=O)C1=C(C)NC(C)=C(C(=O)OC)C1c1ccccc1[N+](=O)[O-] [Nifedipine, reference compound] |  | 25 mg/kg |  | 2.6 nM | readily reversible |  |  |  |
| COC(=O)C1=C(C)NC(C)=C(C(=O)OCCN2CCN(c3cccc(OC)c3)CC2)C1c1cccc([N+](=O)[O-])c1 (stereo not drawn) [0298C, 2-[4-(3-Methoxyphenyl)]piperazinoethyl-2,6-dimethyl-4-(3-nitrophenyl)-5-methoxycarbonyl-1,4-dihydropyridine-3-carboxylate] | 7.5 nM | 32 mg/kg | 38 mg/kg |  |  |  |  |  |
| COC(=O)C1=C(C)NC(C)=C(C(=O)OCCN2CCN(c3ccc(Cl)c(Cl)c3)CC2)C1c1cccc([N+](=O)[O-])c1 (stereo not drawn) [0285C] | 10.5 nM | 10.2 mg/kg | 39 mg/kg |  |  |  |  |  |
| CCOC(=O)C1=C(C)NC(C)=C(C(=O)OCCN2CCN(c3ccc(F)cc3)CC2)C1c1cccc([N+](=O)[O-])c1 (stereo not drawn) [0284C] | 1.3 nM | 5.3 mg/kg | 9.5 mg/kg |  |  |  |  |  |
| CCOC(=O)C1=C(C)NC(C)=C(C(=O)OCCN2CCN(c3ccc(Cl)cc3)CC2)C1c1cccc([N+](=O)[O-])c1 (stereo not drawn) [0294C, 2-[4-(4-Chlorophenyl)]piperazinoethyl-2,6-dimethyl-4-(3-nitrophenyl)-5-ethoxycarbonyl-1,4-dihydropyridine-3-carboxylate] | 5.1 nM | 4.2 mg/kg | 19 mg/kg |  |  |  |  |  |
| COCCOC(=O)C1=C(C)NC(C)=C(C(=O)OCCN2CCN(c3ccc(F)cc3)CC2)C1c1cccc([N+](=O)[O-])c1 (stereo not drawn) [0283C] | 2.6 nM | 8.3 mg/kg | 7.8 mg/kg |  |  |  |  |  |
| COC(=O)C1=C(C)NC(C)=C(C(=O)OCCN2CCN(c3cccc(Cl)c3)CC2)C1c1cccc([N+](=O)[O-])c1 (stereo not drawn) [0255B] | 3.5 nM | 6.3 mg/kg | 25.5 mg/kg |  |  | superior activity |  |  |
| CC1=C(C(=O)OCCN2CCN(c3ccc(F)cc3)CC2)C(c2cccc([N+](=O)[O-])c2)C(C(=O)OCC(C)C)=C(C)N1 (stereo not drawn) [0282C] | 4.9 nM | 3.9 mg/kg | 27.5 mg/kg |  |  |  |  |  |
| COC(=O)C1=C(C)NC(C)=C(C(=O)OCCN2CCN(c3ccc(C(F)(F)F)cc3)CC2)C1c1cccc([N+](=O)[O-])c1 (stereo not drawn) [0297C, 2-[4-(4-Trifluoromethylphenyl)]piperazinoethyl-2,6-dimethyl-4-(3-nitrophenyl)-5-methoxycarbonyl-1,4-dihydropyridine-3-carboxylate] | 15 nM | 4.4 mg/kg | 73 mg/kg |  |  |  |  |  |
| COCCOC(=O)C1=C(C)NC(C)=C(C(=O)OCCN2CCN(c3ccccc3)CC2)C1c1cccc([N+](=O)[O-])c1 (stereo not drawn) [0290C, 2-(4-Phenyl)piperazinoethyl-2,6-dimethyl-4-(3-nitrophenyl)-5-(2-methoxy)ethoxycarbonyl-1,4-dihydropyridine-3-carboxylate] | 3 nM | 16.7 mg/kg | 7.5 mg/kg |  |  |  |  |  |
| COC(=O)C1=C(C)NC(C)=C(C(=O)OCCN2CCN(c3ccc(F)cc3)CC2)C1c1cccc([N+](=O)[O-])c1 (stereo not drawn) [0250B] | 2.5 nM | 7.5 mg/kg | 17.7 mg/kg |  |  | superior activity | ≥ 30 h | about twice the activity of Nifedipine |
| COC(=O)C1=C(C)NC(C)=C(C(=O)OCCN(C)Cc2ccccc2)C1c1cccc([N+](=O)[O-])c1 (stereo not drawn) [Nicardipine, reference compound] | 2.3 nM | 8.6 mg/kg |  |  |  |  |  |  |
| COC(=O)C1=C(C)NC(C)=C(C(=O)OCCN2CCN(c3ccccc3Cl)CC2)C1c1cccc([N+](=O)[O-])c1 (stereo not drawn) [0248B] | 3 nM | 13.8 mg/kg | 24.7 mg/kg |  |  | superior activity |  |  |
| CCOC(=O)C1=C(C)NC(C)=C(C(=O)OC)C1c1cccc([N+](=O)[O-])c1 (stereo not drawn) [Nitrendipine, reference compound] | 1.9 nM |  |  |  |  |  |  |  |
| COC(=O)C1=C(C)NC(C)=C(C(=O)OCCN2CCN(c3nccs3)CC2)C1c1cccc([N+](=O)[O-])c1 (stereo not drawn) [0240A, 2-[4-(2-Thiazolyl)]piperazino-ethyl 2,6-dimethyl-4-(3-nitrophenyl)-5-methoxycarbonyl-1,4-dihydropyridine-3-carboxylate] | 4.2 nM | 31 mg/kg | 7.1 mg/kg |  |  |  |  |  |
| CCOC(=O)C1=C(C)NC(C)=C(C(=O)OCCN2CCN(c3ccccc3)CC2)C1c1cccc([N+](=O)[O-])c1 (stereo not drawn) [0291C] | 3.9 nM | 6.6 mg/kg | 25 mg/kg |  |  |  |  |  |
| COCCOC(=O)C1=C(C)NC(C)=C(C(=O)OCCN2CCN(c3ccc(Cl)cc3)CC2)C1c1cccc([N+](=O)[O-])c1 (stereo not drawn) [0293C, 2-[4-(4-Chlorophenyl)]piperazinoethyl-2,6-dimethyl-4-(3-nitrophenyl)-5-(2-methoxy)ethoxycarbonyl-1,4-dihydropyridine-3-carboxylate] | 4.1 nM | 10.5 mg/kg | 16 mg/kg |  |  |  |  |  |
| COC(=O)C1=C(C)NC(C)=C(C(=O)OCCN2CCN(c3cccc(C(F)(F)F)c3)CC2)C1c1cccc([N+](=O)[O-])c1 (stereo not drawn) [0249B] | 22 nM | 6.6 mg/kg | 35.3 mg/kg |  |  | superior activity | ≥ 30 h | about twice the activity of Nifedipine |
| COC(=O)C1=C(C)NC(C)=C(C(=O)OCCN2CCN(c3ccc(Cl)cc3)CC2)C1c1cccc([N+](=O)[O-])c1 (stereo not drawn) [0264B] | 6.4 nM | 6.3 mg/kg | 32.1 mg/kg |  |  | superior activity | ≥ 30 h | about twice the activity of Nifedipine |
| COC(=O)C1=C(C)NC(C)=C(C(=O)OCCN2CCN(c3ccccc3OC)CC2)C1c1cccc([N+](=O)[O-])c1 (stereo not drawn) [0242A, 2-[4-(2-Methoxyphenyl)]-piperazino-ethyl 2,6-dimethyl-4-(3-nitrophenyl)-5-methoxycarbonyl-1,4-dihydropyridine-3-carboxylate] | 3.4 nM | 13.8 mg/kg | 2.9 mg/kg |  |  |  |  |  |
| COC(=O)C1=C(C)NC(C)=C(C(=O)OCCN2CCN(c3ccccc3C)CC2)C1c1cccc([N+](=O)[O-])c1 (stereo not drawn) [0243A, 2-[4-(2-Tolyl)]piperazino-ethyl 2,6-dimethyl-4-(3-nitrophenyl)-5-methoxycarbonyl-1,4-dihydropyridine-3-carboxylate] | 1.9 nM | 6.6 mg/kg | 14.7 mg/kg |  |  |  |  |  |
| CC1=C(C(=O)OCCN2CCN(c3ccccc3)CC2)C(c2cccc([N+](=O)[O-])c2)C(C(=O)OCC(C)C)=C(C)N1 (stereo not drawn) [0289C, 2-(4-Phenyl)piperazinoethyl-2,6-dimethyl-4-(3-nitrophenyl)-5-isobutoxycarbonyl-1,4-dihydropyridine-3-carboxylate] | 6.3 nM | 2.2 mg/kg | 12 mg/kg |  |  |  |  |  |
| CC1=C(C(=O)OCCN2CCN(c3ccc(Cl)cc3)CC2)C(c2cccc([N+](=O)[O-])c2)C(C(=O)OCC(C)C)=C(C)N1 (stereo not drawn) [0292C, 2-[4-(4-Chlorophenyl)]piperazinoethyl-2,6-dimethyl-4-(3-nitrophenyl)-5-isobutoxycarbonyl-1,4-dihydropyridine-3-carboxylate] | 94 nM | 11.7 mg/kg | 35 mg/kg |  |  |  |  |  |
| COC(=O)C1=C(C)NC(C)=C(C(=O)OCCN2CCN(c3ccc([N+](=O)[O-])cc3)CC2)C1c1cccc([N+](=O)[O-])c1 (stereo not drawn) [0295C, 2-[4-(4-Nitrophenyl)]piperazinoethyl-2,6-dimethyl-4-(3-nitrophenyl)-5-methoxycarbonyl-1,4-dihydropyridine-3-carboxylate] |  | > 20 mg/kg | 38 mg/kg | 11 nM |  |  |  |  |
| COC(=O)C1=C(C)NC(C)=C(C(=O)OCCN2CCN(c3ncccn3)CC2)C1c1cccc([N+](=O)[O-])c1 (stereo not drawn) [0241A] | 4.6 nM | 72 mg/kg | 34.6 mg/kg |  | readily reversible |  |  |  |
| COC(=O)C1=C(C)NC(C)=C(C(=O)OCCN2CCN(c3ccccn3)CC2)C1c1cccc([N+](=O)[O-])c1 (stereo not drawn) [0251B] | 4.6 nM | 34 mg/kg | 12.6 mg/kg |  |  |  |  |  |

— patent US4894460A (Pierrel S.p.A., priority 1982, dated 1990)
